Row | melting point [°C] | SMILES
1 | 166 to 168 | O=c1ccc(S(=O)(=O)c2ccc(Cl)c(Cl)c2)n[nH]1 [Example 4D, 6-(3,4-Dichloro-benzenesulfonyl)-2H-pyridazin-3-one]
2 | > 220 | O=c1ccc(S(=O)(=O)c2cccc(Br)c2)n[nH]1 [Example 4I, 6-(3-Bromo-benzenesulfonyl)-2H-pyridazin-3-one]
3 | > 250 | Cc1cc(Cl)cc(S(=O)(=O)c2ccc(=O)[nH]n2)c1 [Example 4M, 6-(3-Chloro-5-methyl-benzenesulfonyl)-2H-pyridazin-3-one]
4 | > 250 | O=c1ccc(S(=O)(=O)c2c(F)cc(F)cc2Cl)n[nH]1 [Example 4N, 6-(2-Chloro-4,6-difluoro-benzenesulfonyl)-2H-pyridazin-3-one]

From patent publication US6730674B2, “Sulfonyl pyridazinone compounds useful as aldose reductase inhibitors” (Pfizer Inc, priority 2001, dated 2004)
